Laboratory results: BindingDB's records for doi:10.1021/jm300535s (Leipzig University, 2012)

Target: Neuropeptide FF receptor 1 (Homo sapiens, UniProt Q9GZQ6)
Test: Competitive antagonist activity at human NPFF1 receptor expressed in COS1 cells assessed as inhibition of NPVF-induced [3H]inositol phosphate accumulation after 2 hrs by liquid scintillation counting

Sequence of Neuropeptide FF receptor 1 (Q9GZQ6 whole entry): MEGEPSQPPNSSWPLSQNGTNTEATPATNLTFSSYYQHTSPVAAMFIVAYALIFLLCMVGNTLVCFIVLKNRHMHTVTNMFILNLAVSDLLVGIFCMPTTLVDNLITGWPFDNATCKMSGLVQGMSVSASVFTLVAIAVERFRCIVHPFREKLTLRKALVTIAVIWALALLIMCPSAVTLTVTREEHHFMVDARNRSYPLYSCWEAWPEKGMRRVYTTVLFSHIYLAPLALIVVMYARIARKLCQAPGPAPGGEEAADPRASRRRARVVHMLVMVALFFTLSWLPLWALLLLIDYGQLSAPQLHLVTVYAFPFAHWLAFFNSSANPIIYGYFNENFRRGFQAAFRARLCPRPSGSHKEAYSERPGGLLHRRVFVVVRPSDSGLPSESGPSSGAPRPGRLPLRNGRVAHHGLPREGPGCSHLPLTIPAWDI

A Kd of 41.7 nM was found for `NC(N)=NN=CC12CC3CC(CC(C3)C1)C2` in this work.
